Assay results as given in patent US20070167450A1, “Agent for treating chronic pelvic pain syndrome” (Astellas Pharma Inc., priority 2003, published 2007).

Assays:
[1] = test system: Rat Antigen-Induced Cystitis Model; assay: Rat antigen-induced cystitis model: peroxidase activity in bladder extract; format: in vivo, Brown Norway (BN) female rats; conditions: bladder removed after 24 hours, saline group 0%, control group 100%
Procedure: Efficacy of PDE 4 Inhibitors in Rat Antigen-Induced Cystitis Model
Antigen sensitization was carried out by intraperitoneally administering physiological saline containing ovalbumin (OA, 1 mg/ml)-aluminum hydroxide gel (Alum, 20 mg/ml) to Brown Norway (BN) female rats, at a dose of 1 ml per animal for 3 continuous days. After completion of the sensitization, a urethral catheter was attached to each animal under anesthesia, 3% OA/physiological saline was injected into the bladder to induce cystitis, and the resulting animals were used as the control group. Also, a group in which physiological saline was injected into the bladder of each sensitized rat was used as the physiological saline group. A group in which compound A (3 mg/kg), roflumilast (3 mg/kg) or cilomilast (30 mg/kg) was orally administered 1 hour before the intravesical antigen injection was used as a compound A administration group, a roflumilast administration group or a cilomilast administration group. After 24 hours of the intravesical antigen injection, the bladder was removed under pentobarbital anesthesia, and bladder extract was prepared in accordance with the method of Malley et al. (Physiological Genomics, (USA), 2002, vol. 9, no. 1, pp. 5-13). Peroxidase activity in the bladder extract was measured in accordance with the method of Bradley et al. (The Journal of Investigative Dermatology, (England), March 1982, vol. 78, no. 3, pp. 206-9) using human myeloperoxidase (manufactured by Sigma) as the standard, and the results were expressed by defining the peroxidase activity of the physiological saline group as 0%, and the peroxidase activity of the control group as 100%.
When antigen-induced cystitis was caused by carrying out antigen injection into the bladder of each of the sensitized BN rats, and peroxidase activity in the bladder tissue was measured as one of the indexes of cystitis, increase in the peroxidase activity in the bladder tissue was found in the control group. […]

[2] = test system: Rat Hydrochloric Acid-Induced Cystitis Model; assay: Rat hydrochloric acid-induced cystitis model: intravesical pressure recording; format: in vivo, Brown Norway (BN) female rats; conditions: 1 mg/kg orally once a day for 10 days after 0.4 N HCl into the bladder; measured after 11 days under urethane anesthesia
Procedure: Efficacy of PDE 4 Inhibitors in Rat Hydrochloric Acid-Induced Cystitis Model
A bladder disorder was induced by attaching a urethral catheter to each of Brown Norway (BN) female rats under ether anesthesia and injecting 0.4 N hydrochloric acid into the bladder (0.15 ml per one rat). Starting on the next of the bladder disorder induction, the compound A (1 mg/kg) or a vehicle (0.5% methyl cellulose aqueous solution) was orally administered once a day for 10 days, and respectively used as a compound A administration group and a control group. Also, a group in which physiological saline was injected into the bladder (0.15 ml per one rat), and the vehicle was orally administered once a day for 10 days starting on the next day, was used as a physiological saline group. After 11 days of the bladder disorder induction, each rat was fixed in the supine position under urethane anesthesia and equipped with a urethral catheter, and via its three-way cock, one end was used as the injection passage and the other end was connected to a pressure transducer (DX-312, manufactured by NIHON KOHDEN). Physiological saline was continuously injected into the bladder (50 μl/min) using an infusion pump (model 22, Harvard), and the intravesical pressure at that time was amplified by a pre-amplifier (AP-621G, manufactured by NIHON KOHDEN) and recorded using a recorder. […] In comparison with this, in the case of the control group, increase in the resting time intravesical pressure was observed, but increase in the bladder contraction pressure at the time of micturition was hardly found, and micturition frequency was high. In the compound A administration group, increase of the resting time intravesical pressure was inhibited, and increase in the intravesical pressure accompanied by the micturition reflex was also observed.

[3] = 3 mg/kg orally 1 hour before intravesical antigen (OA) injection

| Compound | inhibition of the increase of peroxidase activity in the bladder tissue ([1]; 30 mg/kg orally 1 hour before intravesical antigen (OA) injection) | inhibition of the increase of peroxidase activity in the bladder tissue [1, 3] | increase in the intravesical pressure accompanied by the micturition reflex [2] | increase of the resting time intravesical pressure [2] | interval of the micturition reflex [2] |
| --- | --- | --- | --- | --- | --- |
| COc1ccc([C@]2(C#N)CC[C@@H](C(=O)O)CC2)cc1OC1CCCC1 [cilomilast] | 68% | – | – | – | – |
| CCn1c(=O)c(CCC(=O)O)c(-c2cccc(Cl)c2)c2ccc(C)nc21 [compound A, 3-[4-(3-chlorophenyl)-1-ethyl-7-methyl-2-oxo-1,2-dihydro-1,8-naphthyridin-3-yl]propanoic acid] | – | 72% | observed | inhibited | almost the same as that of the physiological saline administration group |
| O=C(Nc1c(Cl)cncc1Cl)c1ccc(OC(F)F)c(OCC2CC2)c1 [roflumilast] | – | 79% | – | – | – |
